Assays:
Assay type in all cases: cell-based, human
TK-10 (Renal Cancer) = experiment: NCI one dose, TK-10; conditions: TK-10, 1.00E-5 Molar one dose
Experimental: (§1) 3.4. Cell Proliferation Assay
(§2) Selected compounds were tested on a panel of 60 human cancer cell lines at the National Cancer Institute (NCI), Germantown, MD, USA. The cytotoxicity studies were conducted using a 48 h exposure protocol using the sulfo-rhodamine B assay.

HL-60(TB) (Leukemia) = experiment: NCI one dose, HL-60(TB); conditions: 1.00E-5 Molar one dose
Experimental: as §1, §2

[1] = test system: NCI-H226 (Non-Small Cell Lung Cancer); experiment: NCI one dose, NCI-H226; conditions: NCI-H226, 1.00E-5 Molar one dose
Experimental: as §1, §2

Row | SMILES | Growth Percent (TK-10 (Renal Cancer)) [%] | Growth Percent (HL-60(TB) (Leukemia)) [%] | Growth Percent [1] [%]
1 | C[C@@]12SC[C@@H](C(=O)NCc3ccc(Cl)cc3Cl)N1C(=O)c1ccccc12 [4bH] | 105.53 |  | 
2 | COc1ccc(CNC(=O)[C@@H]2CS[C@H]3c4ccccc4C(=O)N23)cc1 [4aF] | 105.25 | 97.30 | 101.53
3 | COc1cccc(CNC(=O)[C@@H]2CS[C@H]3c4ccccc4C(=O)N23)c1 [4aE] | 89.04 |  | 
4 | COc1ccccc1CNC(=O)[C@@H]1CS[C@H]2c3ccccc3C(=O)N12 [4aG] | 90.98 |  | 
5 | C[C@@]12SC[C@@H](C(=O)NCc3ccccc3C(F)(F)F)N1C(=O)c1ccccc12 [4bC] | 92.04 |  | 
6 | C[C@@]12SC[C@@H](C(=O)NCc3ccccc3Br)N1C(=O)c1ccccc12 [4bB] | 99.69 |  | 
7 | C[C@@]12SC[C@@H](C(=O)NCc3cccc(C(F)(F)F)c3)N1C(=O)c1ccccc12 [4bD] | 101.65 |  | 
8 | O=C(NCc1ccccc1C(F)(F)F)[C@@H]1CS[C@H]2c3ccccc3C(=O)N12 [4aC] | 108.86 | 101.08 | 95.46
9 | COc1cc(CNC(=O)[C@@H]2CS[C@@]3(C)c4ccccc4C(=O)N23)cc(OC)c1OC [4bJ] | 102.44 |  | 
10 | COc1ccc(CNC(=O)[C@@H]2CS[C@@]3(C)c4ccccc4C(=O)N23)cc1OC [4bI] | 95.68 |  | 
11 | O=C(NCc1ccccc1)[C@@H]1CS[C@H]2c3ccccc3C(=O)N12 [4aA] | 96.56 | 102.43 | 86.94
12 | COc1ccc(CNC(=O)[C@@H]2CS[C@H]3c4ccccc4C(=O)N23)cc1OC [4aI] | 87.34 |  | 
13 | COc1ccc(CNC(=O)[C@@H]2CS[C@@]3(C)c4ccccc4C(=O)N23)cc1 [4bF] | 99.99 |  | 
14 | C[C@@]12SC[C@@H](C(=O)NCc3ccccc3)N1C(=O)c1ccccc12 [4bA] | 85.29 |  | 
15 | COc1ccccc1CNC(=O)[C@@H]1CS[C@@]2(C)c3ccccc3C(=O)N12 [4bG] | 91.89 |  | 
16 | COc1cc(CNC(=O)[C@@H]2CS[C@H]3c4ccccc4C(=O)N23)cc(OC)c1OC [4aJ] | 103.10 | 96.47 | 97.62
17 | O=C(NCc1ccc(Cl)cc1Cl)[C@@H]1CS[C@H]2c3ccccc3C(=O)N12 [4aH] | 103.48 | 93.16 | 95.83
18 | COc1cccc(CNC(=O)[C@@H]2CS[C@@]3(C)c4ccccc4C(=O)N23)c1 [4bE] | 95.45 |  | 
19 | O=C(NCc1cccc(C(F)(F)F)c1)[C@@H]1CS[C@H]2c3ccccc3C(=O)N12 [4aD] | 117.52 | 96.47 | 100.68

Source: publication PMC11855478, “Bicyclic N,S-Acetals Containing Fused Cysteine-Amide System as New Heterocyclic Class Targeting Human Farnesyltransferase (FTase-h)” (International Journal of Molecular Sciences, 2025)
